Assay results: patent US10792291B2, “Applications for levonorgestrel in preparing anti-ovarian cancer products” (SHANGHAI JIAO TONG UNIVERSITY, priority 2015, dated 2020)
pEC50, pIC50: −log10 of the molar value.

Key:
Type in all cases: cell-based
[1] = test system: SKOV-3 ovarian cancer cells; test: CELLTITER-GLO Luminescent Cell Viability Assay, SKOV-3 ovarian cancer cells
Text: In example 1, CELLTITER-GLO was used to test levonorgestrel against ovarian cancer. m) A cell counter was used to count the number of suspended cells and adjust the cell suspension to an appropriate density in the plate to carry out cell plating experiments. n) SKOV-3 cells were handled as described above, and a SKOV-3 96-well cell culture plate was obtained. The complete medium for SKOV-3 cells was McCOY'S 5A (a live product), Cat #16600082, with a cells/well density of 12000. 2. The drug analyte levonorgestrel was prepared and administered (200× final concentration): a) DMSO was used to dilute the analyte levonorgestrel to 20 mM for use. b) 79 μL of the 20 mM analyte prepared in step a) was added to the first well in the first row of the dilution plate, and then 54 μL of DMSO solution was added to the second through ninth wells of the first row. […] The final concentrations (μM) of the analyte drug in wells 2-10 in FIG. 1 are, in order: 100, 31.64557, 10.01442, 3.16912, 1.002886, 0.317369, 0.100433, 0.031783, 0.010058; B. CELLTITER-GLO Luminescent Cell Viability Assay System a) Before testing, the SKOV-3 96-well drug screening plate described in 3 above was stabilized to room temperature for 20-30 minutes. c) 100 μl of CellTiter-Glo reagent (prepared as described in 1 above) was added to all drug screening plates and mixed evenly. d) It was thoroughly oscillated in a 96-well microplate oscillator for 2 minutes to allow the cells to undergo full lysis. e) It was stored away from light at room temperature for 15 minutes before carrying out luminescent signal detection to ensure signal stability. f) An EnSpire multi-function plate reader was used at 570 nm to read the luminescent signals. g) Data was processed and analyzed.

[2] = test system: NCI-H441 human lung adenocarcinoma cells; test: CELLTITER-GLO cell viability assay, NCI-H441 cells (same method)
Description: (§1) In the examples below, the product sources for the SKOV-3 ovarian cancer cells, the NCI-H1993 non-small cell human lung cancer cells, and the NCI-H441 human lung adenocarcinoma cells are as follows: In example 1, CELLTITER-GLO was used to test levonorgestrel against ovarian cancer. c) The SKOV-3 96-well cell plates prepared in step 1 were removed from the incubator, and 10 μl of the cell culture media (10× final concentration) with varying drug concentrations as described in b) above was added to the SKOV-3 96-well cell culture plate row-by-row as shown in FIG. 1. It was placed into a CO2 incubator at 37° C. for 72 hours, obtaining the SKOV-3 96-well drug screening plate. The final concentrations (μM) of the analyte drug in wells 2-10 in FIG. 1 are, in order: 100, 31.64557, 10.01442, 3.16912, 1.002886, 0.317369, 0.100433, 0.031783, 0.010058; B. CELLTITER-GLO Luminescent Cell Viability Assay System c) 100 μl of CellTiter-Glo reagent (prepared as described in 1 above) was added to all drug screening plates and mixed evenly. f) An EnSpire multi-function plate reader was used at 570 nm to read the luminescent signals. The same method was used to test levonorgestrel's action on the IC50 values of NCI-H1993 human lung non-small cell carcinoma cells and NCI-H441 human lung adenocarcinoma cells; results are shown in Table 1.

[3] = test system: NCI-H1993 human lung non-small cell carcinoma cells; test: CELLTITER-GLO cell viability assay, NCI-H1993 cells (same method)
Description: as §1

- pIC50 ([1]; Homo sapiens, SK-OV-3, SKOV-3 cells, 72 hours, CellTiter-Glo): 5.48
- pEC50 ([1]; Homo sapiens, SK-OV-3, SKOV-3 cells, 72 hours, CellTiter-Glo, FIG. 2): 5.51
- pIC50 [2]: ≤ 4.00
- pIC50 [3]: ≤ 4.00
Structure (SMILES): C#C[C@]1(O)CC[C@H]2[C@@H]3CCC4=CC(=O)CC[C@@H]4[C@H]3CC[C@@]21CC [levonorgestrel]
- effect on the proliferation of ovarian cancer cells ([1]; compared with NCI-H441 and NCI-H1993 lung cancer cells): specific inhibitory effect
